Measurements from PubChem BioAssay AID1259411 (Chemical Carcinogenesis Research Information System (CCRIS), 2018).
Active and inactive are the calls of the source. The rule behind the calls is not given here.

System: rodent carcinogenicity bioassays, tumor incidence
Experiment: CCRIS carcinogenicity studies
Outline: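 NCI-built, expert-reviewed records of carcinogenicity and related test outcomes (mutagenicity, tumor promotion/inhibition) compiled from published and report sources, historical span 1985-2011, not updated.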

O=NO
carcinogen call (Species: MOUSE, Strain/Sex: B6C3F1/FEMALE, Route: ORAL, Dose: 0, 30.7, 310 MG/D IN DRINKING WATER FOR LIFE ADMINISTERED TO MICE OF MOTHERS EXPOSED TO SAME DOSES THROUGH PREGNANCY AND, Dose: 0, 30.7, 310 MG/D IN DRINKING WATER FOR LIFE ADMINISTERED TO MICE OF MOTHERS EXPOSED TO SAME DOSES THROUGH PREGNANCY AND): inactive; negative | carcinogen call (Species: MOUSE, Strain/Sex: B6C3F1/FEMALE, Route: ORAL, Dose: 0, 750, 1500, 3000 PPM IN DRINKING WATER FOR 104-105 WK (STUDY DURATION: 104-105 WK), Dose: 0, 750, 1500, 3000 PPM IN DRINKING WATER FOR 104-105 WK (STUDY DURATION: 104-105 WK), Tumor Site: Type of Lesion: FORESTOMACH: SQUAMOUS CELL PAPILLOMA OR CARCINOMA): equivocal | carcinogen call (Species: MOUSE, Strain/Sex: B6C3F1/MALE, Route: ORAL, Dose: 0, 30.7, 310 MG/D IN DRINKING WATER FOR LIFE ADMINISTERED TO MICE OF MOTHERS EXPOSED TO SAME DOSES THROUGH PREGNANCY AND, Dose: 0, 30.7, 310 MG/D IN DRINKING WATER FOR LIFE ADMINISTERED TO MICE OF MOTHERS EXPOSED TO SAME DOSES THROUGH PREGNANCY AND): inactive; negative | carcinogen call (Species: MOUSE, Strain/Sex: B6C3F1/MALE, Route: ORAL, Dose: 0, 750, 1,500, 3,000 PPM IN DRINKING WATER FOR 104-105 WK (STUDY DURATION: 104-105 WK), Dose: 0, 750, 1,500, 3,000 PPM IN DRINKING WATER FOR 104-105 WK (STUDY DURATION: 104-105 WK)): inactive; negative | carcinogen call (Species: MOUSE, Strain/Sex: C57BL/FEMALE, Route: ORAL, Dose: 0, 30.7, 310 MG/D IN DRINKING WATER BEGINNING AT 7-8 WK OF AGE AND CONTINUING FOR STUDY DURATION (STUDY DURATION: LIFE S, Dose: 0, 30.7, 310 MG/D IN DRINKING WATER BEGINNING AT 7-8 WK OF AGE AND CONTINUING FOR STUDY DURATION (STUDY DURATION: LIFE S): inactive; negative | carcinogen call (Species: MOUSE, Strain/Sex: VM/FEMALE, Route: ORAL, Dose: 0, 0.2% IN DRINKING WATER BEGINNING AT WEANING AND CONTINUING FOR DURATION STUDY (STUDY DURATION: LIFETIME)): inactive; negative | carcinogen call (Species: MOUSE, Strain/Sex: VM/FEMALE, Route: ORAL, Dose: 0, 0.2% IN DRINKING WATER BEGINNING IN UTERO AND CONTINUING FOR DURATION OF STUDY (STUDY DURATION: LIFETIME)): inactive; negative | carcinogen call (Species: MOUSE, Strain/Sex: VM/MALE, Route: ORAL, Dose: 0, 0.2% IN DRINKING WATER BEGINNING AT WEANING AND CONTINUING FOR DURATION OF STUDY (STUDY DURATION: LIFETIME)): inactive; negative | carcinogen call (Species: MOUSE, Strain/Sex: VM/MALE, Route: ORAL, Dose: 0, 0.2% IN DRINKING WATER BEGINNING IN UTERO AND CONTINUING FOR DURATION OF STUDY (STUDY DURATION: LIFETIME)): inactive; negative | carcinogen call (Species: RAT, Strain/Sex: F344/FEMALE, Route: ORAL, Dose: 0, 750, 1,500, 3,000 PPM IN DRINKING WATER FOR 105 WK (STUDY DURATION: 105 WK), Dose: 0, 750, 1,500, 3,000 PPM IN DRINKING WATER FOR 105 WK (STUDY DURATION: 105 WK)): inactive; negative | carcinogen call (Species: RAT, Strain/Sex: F344/MALE,FEMALE, Route: ORAL, Dose: 0.125, 0.25% IN DRINKING WATER FOR 2 YR): inactive; negative | carcinogen call (Species: RAT, Strain/Sex: F344/MALE, Route: ORAL, Dose: 0, 0.2, 0.5% IN DIET FOR 115 WK (STUDY DURATION: 115 WK), Dose: 0, 0.2, 0.5% IN DIET FOR 115 WK (STUDY DURATION: 115 WK)): inactive; negative | carcinogen call (Species: RAT, Strain/Sex: F344/MALE, Route: ORAL, Dose: 0, 750, 1,500, 3,000 PPM IN DRINKING WATER FOR 105 WK (STUDY DURATION: 105 WK), Dose: 0, 750, 1,500, 3,000 PPM IN DRINKING WATER FOR 105 WK (STUDY DURATION: 105 WK)): inactive; negative

CCCC(OC(C)=O)N(CCCC(=O)OC)N=O (stereo not drawn)
carcinogen call (Species: RAT, Strain/Sex: F344/MALE,FEMALE, Route: SUBCUTANEOUS, Dose: 38 UMOL/KG IN OLIVE OIL 1/WK FOR 10 WK, Tumor Site: Type of Lesion: INJECTION SITE: MALIGNANT FIBROUS HISTIOCYTOMA): active; positive

c1ccc2c(c1)cc1ccc3cc4ccccc4c4ccc2c1c34
carcinogen call (Species: HAMSTER, Route: SUBCUTANEOUS, Tumor Site: Type of Lesion: INJECTION SITE): active; positive | carcinogen call (Species: MOUSE, Route: DERMAL, Tumor Site: Type of Lesion: INTEGUMENTARY SYSTEM (SKIN)): active; positive | carcinogen call (Species: MOUSE, Route: SUBCUTANEOUS, Tumor Site: Type of Lesion: INJECTION SITE): active; positive

O=[N+]([O-])NC1=NCCN1Cc1ccc(Cl)nc1
carcinogen call (Species: Mouse, Strain/Sex: B6C3F1/Female (60/Group), Route: Oral, Dose: 0, 100, 330, 1000 ppm and 0, 2000 ppm (2 related studies) of 95.3% imidacloprid in diet for 24 mo, study duration 24 mo, Dose: 0, 100, 330, 1000 ppm and 0, 2000 ppm (2 related studies) of 95.3% imidacloprid in diet for 24 mo, study duration 24 mo): inactive; negative | carcinogen call (Species: Mouse, Strain/Sex: B6C3F1/Male (60/Group), Route: Oral, Dose: 0, 100, 330, 1000 ppm and 0, 2000 ppm (2 related studies) of 95.3% imidacloprid in diet for 24 mo, study duration 24 mo, Dose: 0, 100, 330, 1000 ppm and 0, 2000 ppm (2 related studies) of 95.3% imidacloprid in diet for 24 mo, study duration 24 mo): inactive; negative | carcinogen call (Species: Rat, Strain/Sex: Wistar/Female (60/Group), Route: Oral, Dose: 0, 100, 300, 900 ppm and 0;1800 ppm (2 related studies) of 94.3% imidacloprid in diet for 24 mo, study duration 24 mo, Dose: 0, 100, 300, 900 ppm and 0;1800 ppm (2 related studies) of 94.3% imidacloprid in diet for 24 mo, study duration 24 mo): inactive; negative | carcinogen call (Species: Rat, Strain/Sex: Wistar/Male (60/Group), Route: Oral, Dose: 0, 100, 300, 900 ppm and 0, 1800 ppm (2 related studies) of 94.3% imidacloprid in diet for 24 mo, study duration 24 mo, Dose: 0, 100, 300, 900 ppm and 0, 1800 ppm (2 related studies) of 94.3% imidacloprid in diet for 24 mo, study duration 24 mo, Tumor Site: Type of Lesion: Liver: Cholangiocellular carcinoma (2/60 at 1800 ppm vs 0/60 all other groups)): active; positive

CCCCCCCCCCCCCC(=O)ON(C(C)=O)c1ccc2c(c1)Cc1cc(I)ccc1-2
carcinogen call (Species: RAT, Strain/Sex: F344/MALE, Route: SUBCUTANEOUS, Dose: 10.6 UMOL IN 0.2 ML DMSO-TRIOCTANOIN 1/WK FOR 6 WK, Tumor Site: Type of Lesion: INJECTION SITE: FIBROSARCOMA OR FIBROMYOSARCOMA OR FIBROLIPOSARCOMA): active; positive

CCCCN(N=O)C1CCC(=O)O1 (stereo not drawn)
carcinogen call (Species: RAT, Strain/Sex: F344/MALE, Route: SUBCUTANEOUS, Dose: 38 UMOL/KG IN OLIVE OIL 1/WK FOR 10 WK, Tumor Site: Type of Lesion: INJECTION SITE: MALIGNANT FIBROUS HISTIOCYTOMA, LUNG: ADENOMA): active; positive

O=S(=O)(O)c1ccc(N=Nc2c(O)ccc3cc(S(=O)(=O)O)ccc23)cc1
carcinogen call (Species: MOUSE, Strain/Sex: B6C3F1/FEMALE, Route: ORAL, Dose: 0, 12500, 25000 PPM IN DIET, Dose: 0, 12500, 25000 PPM IN DIET): inactive; negative | carcinogen call (Species: MOUSE, Strain/Sex: B6C3F1/MALE, Route: ORAL, Dose: 0, 12500, 25000 PPM IN DIET, Dose: 0, 12500, 25000 PPM IN DIET): inactive; negative | carcinogen call (Species: MOUSE, Strain/Sex: SWISS-WEBSTER/FEMALE, Route: DERMAL, Dose: 0, 1% IN 0.1 ML DISTILLED WATER 1/WK FOR 19.5 MO (STUDY DURATION: 19.5 MO)): inactive; negative | carcinogen call (Species: MOUSE, Strain/Sex: SWISS-WEBSTER/MALE, Route: DERMAL, Dose: 0, 1% IN 0.1 ML DISTILLED WATER 1/WK FOR 19.5 MO (STUDY DURATION: 19.5 MO)): inactive; negative | carcinogen call (Species: RAT, Strain/Sex: F344/FEMALE, Route: ORAL, Dose: 0, 12500, 25000 PPM IN DIET, Dose: 0, 12500, 25000 PPM IN DIET): inactive; negative | carcinogen call (Species: RAT, Strain/Sex: F344/MALE, Route: ORAL, Dose: 0, 12500, 25000 PPM IN DIET, Dose: 0, 12500, 25000 PPM IN DIET): inactive; negative

CN(N=O)C(CCC(=O)O)c1cccnc1 (stereo not drawn)
carcinogen call (Species: MOUSE, Strain/Sex: STRAIN-A/FEMALE, Route: INTRAPERITONEAL, Dose: 0, 2.23 MG 3/WK FOR 20 WK (STUDY DURATION: 50 WK)): inactive; negative | carcinogen call (Species: MOUSE, Strain/Sex: STRAIN-A/FEMALE, Route: INTRAPERITONEAL, Dose: 0, 200 UMOL MOUSE (TOTAL DOSE) ADMINISTERED IN 0.1 ML SALINE 3/WK (TOTAL 20 INJECTIONS) (STUDY DURATION: 37 WK)): inactive; negative | carcinogen call (Species: MOUSE, Strain/Sex: STRAIN-A/FEMALE, Route: INTRAPERITONEAL, Dose: 0, 200 UMOL TOTAL DOSE ADMINISTERED IN SUBDOSES 3/WK FOR 7 WK (STUDY DURATION: 37 WK)): inactive; negative

O=C(O)[C@H]1O[C@@H](N(O)c2ccc3c(c2)Cc2ccccc2-3)[C@H](O)[C@@H](O)[C@@H]1O
carcinogen call (Species: RAT, Strain/Sex: F344/MALE, Route: INJECTION, Dose: 0, 1 UMOL IN 0.5 ML OF SOLUTION CONTAINING 0.4 ML PHOSPHATE BUFFERED SALINE/ GENTAMYCIN (PH 7) AND 0.1 ML DMSO INJECTED, Tumor Site: Type of Lesion: BLADDER: CARCINOMA): active; positive
